One series concerns the target T1, GTP-bound (active) Cdc42 (Mus musculus, UniProt P60766).
T1 construct: endogenous in cells; host or cells: Swiss 3T3 fibroblasts (mouse)
Kind of series: G-LISA of GTP-bound (active) Cdc42 in Swiss 3T3 lysates. As to conditions: then 1 unit/mL Cdc42 activator 2 minutes. The series is classed as cell-based. How it is done:
Serine 71 phosphorylation can occur on both Rac and Cdc42. To directly assess specific Cdc42 activation and inactivation, a G-LISA, an ELISA-based assay that allows a quantitative determination of the levels of GTP-bound (active) Cdc42 in cellular lysates was utilized. Serum-starved Swiss 3T3 fibroblasts were incubated for 1 hour with 50 μM ZCL278 or 10 μM NSC23766 (Rac inhibitor), followed by 2 minutes of stimulation with 1 unit/mL Cdc42 activator.
Finally, the ability of NSC23766 to cross-inhibit Cdc42 activation was analyzed. NSC23766 was developed in a similar manner as ZCL278; however, it is specific to Rac and should therefore act as an additional negative control in this assay.
G-LiSA kit: Swiss 3T3 cells were cultured to 40% of the growth density, then removed serum and cultured for 48 hours, treated with Cdc42 agonist for 1 minute, and treated with the 50 uM ZCL278 and 10 uM NSC23766. Cell lysis proteins were extracted according to kit instructions, and analysis of the quantification of total protein concentration to be 0.15 mg/ml. Untreated cells or cells treated with buffer were used as negative control while the agonist treated cells and active Cdc42 protein were used as a positive control. Enzyme linked immunosorbent assay measured the absorbance value of each sample 490 nm light wave.

The subject of series [1] is PC-3 cells. The series can be described thus: Wound healing (migration) assay in PC-3 cells. The series is classed as cell-based, human. As to conditions: 24 hours; for wound closure: control 41%. How it is done: Filopodia are dynamic structures that aid cells in pathfinding and migration, and are largely controlled by Cdc42 activity. Using a metastatic line of human prostate cancer cells (PC-3), a wound healing assay was used in order to elucidate the effects of ZCL278 on cellular migration. 1 unit/ml Cdc42 activator; 50 uM or 5 uM of ZCL278; and 10 uM […] respectively, were used to treat cells for 24 hours, with Cdc42 activator as positive control, and no treatment as negative control. Cells were photographed at 0 and 24 hours following drug treatments and MetaMorph software was used to determine the distances cells had migrated. Black line indicates the boundary of wounded area. Each experiment was tested with p value (p<0.05).
The experiment was repeated three times and the means were obtained:**; p<0.01,*:p<0.05. Wound closure was less pronounced at 50 μM (8%) than 5 μM (30%) concentrations.

The subject of a further series is phosphorylated RhoA. The series can be described thus: Immunofluorescence staining of phosphorylated RhoA in Swiss 3T3 cells. Format: cell-based, mouse. The following applies: 50 uM ZCL278, 10 uM NSC23766 or 1 unit/ml Cdc42 agonist. How it is done: (§1) Immunofluorescent staining: Swiss3T3 cells were grown on coverslips to 30% confluence. In serum-deprived culture, cells were treated with 10 uM NSC23766 or 50 uM ZCL278 for 1 hour followed by 1 unit/mL Cdc42 agonists (Cytoskeleton Products) treatment for 1 minute. Added agonist alone was used as a positive control while DMSO was used as a negative control. Cells on the coverslips were fixed in 4% paraformaldehyde for 15 minutes, and in 0.2% Triton X-100 for permeabilization for 15 minutes and then blocked in 10% BSA for 30 minutes.
(§2) Incubation with antibodies: anti-active Cdc42 (mouse antibody, Neweast Biosciences); phosphorylated RhoA antibody (rabbit antibody, Santa Cruz Biotechnology Company); GM130 antibody (mouse antibody, BD Biosciences Company). The next step was to apply corresponding secondary antibody. Rhodamine, Phalloidin was incubated for 1 hour at room temperature to observe filamentous actin under the Zeiss Axiovert fluorescent light microscopy of cells staining. Image processing software MetaMorph-5 was used to randomly select cells in randomly selected five-point pixels to obtain the average number of each group for pixel intensity values.
(§3) Determination of selective inhibition of Cdc42 activation by ZCL278 at the cellular level. […] FIG. 3C: Pixel intensity of phospho-RhoA in cells after treatments with Activator, ZCL278, or NSC23766 was quantified. […]

Series [2] relates to PC-3 cells. Kind of series: Trypan blue dye exclusion cell viability in PC-3 cells. Format: cell-based. As to conditions: 50 μM ZCL278 or 10 μM NSC23766, 24 hours, PC-3, trypan blue. How it is done:
Examination of cell survival: PC3 cells were plated at 75000/ml for 48 hours, serum was removed and 50 uM ZCL278 or 10 uM NSC23766 was added, and then continue to culture for 24 hours before staining with trypan blue to determine cell survival rate.
In order to ensure that decreases in cellular migration seen with ZCL278 treatment was due to Cdc42 inhibition (or Rae inhibition when treated with NSC23766) rather than cell death, cell viability was tested using the trypan blue dye exclusion assay. PC-3 cells were arrested in G0, and then 50 μM ZCL278 or 10 μM NSC23766 was applied for 24 hours. […] Therefore, the differences seen in migratory ability is due to ZCL278-mediated Cdc42 inhibition or NSC23766-mediated Rac inhibition and not cell death.

In the next series the test system is GM130. The series can be described thus: GM130-docked Golgi organization in Swiss 3T3 cells. As to conditions: 50 uM ZCL278 or 10 uM NSC23766, Swiss 3T3. The series is classed as cell-based, mouse. How it is done:
as §1
as §2, with “values. […]” for “values.”

A further series deals with active Cdc42. The series can be described thus: Immunofluorescence staining of active Cdc42 in Swiss 3T3 cells. Format: cell-based, mouse. As to conditions: 50 uM ZCL278 or 10 uM NSC23766, Cdc42 agonist 1 unit/ml. As for the experimental part: as §1, §2, §3
Series [3] deals with growth cone filopodia of cortical neurons. The series can be described thus: Time-lapse video microscopy of growth cone dynamics in cortical neurons. Format: cell-based, mouse. The following applies: ZCL278 treatment, cortical neuron growth cone. As for the experimental part: (§4) Time-lapsed video light microscopy was used to observe the effects of ZCL278 on neuronal growth cone dynamics, Hamamatsu Orca digital camera was used to record the cell images under 63× magnification for 10 minute. 300 ms exposure for imaging was used to minimize phototoxicity. The images were analyzed using MetaMorph software and statistical analysis was performed. At 5 days cultured in vitro, cortical neurons extended neurites with multiple branches (FIG. 6A, Control). 50 μM of ZCL278 was applied for 5 and 10 minutes, while DMSO-treated neurons were maintained as negative controls.
Cdc42 is also widely known to control filopodia and microspikes at the leading edge of migrating growth cones. […] Thus, these studies further support ZCL278 as an effective small-molecule inhibitor of Cdc42-mediated neuronal branching and growth cone motility.

Another series has as its system phospho-Rac/Cdc42. The series can be described thus: Western blot of phospho-Rac/Cdc42 (Serine 71) in PC-3 cells. As to conditions: 50 μM for 5, 10 and 15 minutes. The series is classed as cell-based, human. How it is done:
First, Cdc42 activation was investigated in human metastatic prostate cancer PC-3 cells that were treated with the Cdc42 activator or 50 μM ZCL278 for 5, 10, and 15 minutes. Serine 71 phosphorylation is known to negatively regulate Rac/Cdc42 activity, thus an increase: in phospho-Rac/Cdc42 expression is indicative of a decrease in active (GTP-bound) Rac/Cdc42.
(§5) The Western blot: PC3 cells cultured to approximately 70% of the density, then removed serum and cultured for 16 hours, with addition of drugs: 1 unit/mL Cdc42 agonist (cytoskeleton) 5 uM, 50 uM ZCL278 to treat cells for 5, 10, and 15 minutes respectively. Cell lysis buffer (Formulation: 50 mM Tris buffer solution pH 7.5, 10 mM magnesium chloride, 0.5 M sodium chloride, 1% Triton X-100 and protease inhibitors) cell lysis and centrifuged at 14000 rpm and 4° C. to obtain extracted protein samples. Western blot analysis was conducted using antibody: phosphorylated Rac1/Cdc42 (Milipore Company), phosphorylated WASP (Assay Biotech Company), all at 1:1000, and GAPDH antibody (Calbiochem Company) on PVDF membrane for chemiluminescence development.
For orientation: In western blotting, separated proteins are transferred to a membrane and probed.

Series [4] addresses T2, Cdc42 (Homo sapiens, UniProt P60953). The series can be described thus: Fluorescence titration of purified Cdc42 with ZCL278 (tryptophan fluorescence). As to conditions: emission monitored at 350 nm. Format: binding. How it is done: The binding affinity of ZCL278 and Cdc42 was assessed by using two independent biophysical methods. First, fluorescence titration of purified Cdc42 ZCL278 was carded out by monitoring the change of fluorescence intensity of a tryptophan residue on CAc42 upon ZCL278 binding. As ZCL278 has a weak absorption peak at 310 nm, to avoid any experimental error that might result from potential fluorescence quenching by ZCL278, the fluorescence emission of Cdc42 was monitored at 350 nm, at which ZCL278 has a negligible absorption. […] These species in solution may have modifying effects on membrane transport and binding to Cdc42.

Series [5] deals with primary neonatal cortical neurons. The series can be described thus: Neuronal branching in primary neonatal cortical neurons. Format: cell-based, mouse. The following applies: 50 μM for 5 and 10 minutes, 5 days in vitro. As for the experimental part: Primary neonatal day-one mouse brain was incubated with 0.25% trypsin HBSS for 15 minutes at 37° C., gently separated neurons were plated on poly-L-lysine coated coverslips, incubated with DMEM containing 10% bovine serum for 16 hours, then the media was changed to Neurobasal (Invitrogen). At 5 days in vitro, the cells were treated with either DMSO or 50 uM ZCL278 for 5 or 10 minutes, then fixed in 4% paraformaldehyde for 15 minutes. Fluorescein-phalloidin was applied to stain for F-actin structure and the neuronal morphology was observed under the Zeiss light microscope.
as §4

Another series concerns phospho-WASP. The series can be described thus: Western blot of phospho-WASP in PC-3 cells. Format: cell-based, human. The following applies: 50 μM, up to 15 minutes. How it is done:
Wiskott-Aldrich syndrome Protein WASP) is a downstream effector of Cdc42 activation. Tyrosine phosphorylation WASP is linked to rapid Cdc42 degradation following its activation. […] Thus, ZCL278 inhibits Rac/Cdc42 phosphorylation in a time-dependent manner and maintains tyrosine phosphorylation of WASP.
as §5

The nature of the next series: Solubility determination. The series is classed as physicochemical.
For series [6], the target named is T2, Cdc42. The series can be described thus: Surface plasmon resonance, purified Cdc42 immobilized on CM5 chips. Format: binding. As to conditions: SPR. (In SPR one partner is held on a chip, and binding of the other changes the refractive index at the surface.)
The subject of series [7] is Cdc42-mediated microspike/filopodia formation in Swiss 3T3 fibroblasts. Kind of series: Cdc42-mediated microspike/filopodia formation in serum-starved Swiss 3T3 fibroblasts. The series is classed as cell-based, mouse. The following applies: 50 μM for 1 hour, then Cdc42 activator 2 minutes. How it is done:
30 selected ZCL compounds were assessed for their ability to inhibit Cdc42-mediated microspike/filopodia formation in serum-starved Swiss 3T3 fibroblasts. Actin-based microspikes/filopodia are characteristic of Cdc42 activity in cultured fibroblastic cells. […] When arrested fibroblasts were briefly stimulated with 1 unit/mL of a commercial Cdc42 activator, a dramatic increase in microspike number and decrease in stress fibers occurred (FIG. 2A, Activator). Compound ZCL278 was applied at 50 μM for 1 hour and then stimulated with the Cdc42 activator for 2 minute. The cell periphery of ZCL278-treated cells resembles control cells with few microspikes (FIG. 2A, ZCL278).

≈ marks a conversion by molar mass, not a printed value.

The values that follow come from patent publication US9725417B2, “Cdc42 inhibitor and uses thereof” (priority 2011, dated 2017).

T2 sequence (P60953 whole entry, species assumed): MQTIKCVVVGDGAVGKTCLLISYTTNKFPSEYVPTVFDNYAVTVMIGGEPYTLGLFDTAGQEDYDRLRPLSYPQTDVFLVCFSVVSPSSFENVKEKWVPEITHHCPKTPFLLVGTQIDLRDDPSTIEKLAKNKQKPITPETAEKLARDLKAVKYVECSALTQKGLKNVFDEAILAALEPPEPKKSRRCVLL
T1 sequence (P60766 whole entry): as the sequence (P60953 whole entry, species assumed) above

On to `CCN(CC)CCCC(C)Nc1nc(C)cc(Nc2ccc3nc(C)cc(N)c3c2)n1` (stereo not drawn) [NSC23766, reference compound], for which the “effect on GTP-Cdc42 content” value at GTP-bound (active) Cdc42 (10 μM NSC23766 1 hour) was “does not reduce GTP-Cdc42 content”. Besides, the cellular migration result with PC-3 cells [1] (10 uM) is recorded as “significantly reduced”. In addition, the “pixel intensity of phospho-RhoA” value in the series on phosphorylated RhoA is given as “did not alter the phosphorylation RhoA”. Besides, the “cell viability versus non-treated cells” value in the series on PC-3 cells [2] is recorded as “no difference in viability”. Also, the “GM130 immunoreactivity and distribution” value with GM130 is on record as “did not significantly after GM130 expression or distribution”. In the series with active Cdc42, the “perinuclear distribution and immunoreactivity of active Cdc42” value was “did not have similar effects”.
For `Cc1cc(C)nc(NS(=O)(=O)c2ccc(NC(=S)NC(=O)COc3ccc(Br)cc3Cl)cc2)n1` [ZCL278, 4-(3-(2-(4-Bromo-2-chlorophenoxy)acetyl)thioureido)-N-(4,6-dimethylpyrimidin-2yl)benzenesulfonamide], the “time to retraction of filopodia” value in series [3] is ≤ 4 min. Moreover, the “Rac/Cdc42 phosphorylation (Serine 71)” value with phospho-Rac/Cdc42 is on record as “time-dependent increase”. Further, the Kd is 6.4 µM on Cdc42 [4] and 11.4 µM on Cdc42 [6]. Further, in series [5], the neuronal branch number result is “significantly reduced”. For the same compound, the “decrease in GTP-Cdc42 content compared with cells treated solely with the activator” value at GTP-bound (active) Cdc42 (50 μM ZCL278 1 hour) was ~80%. For the same compound, the wound closure with PC-3 cells [1] (5 μM) is listed as 30%; with PC-3 cells [1] (50 μM), 8%. Further, in the series with phospho-WASP, the phospho-WASP expression entry was “does not suppress phospho-WASP activity”. Besides, the “pixel intensity of phospho-RhoA” value in the series with phosphorylated RhoA is recorded as “did not alter the phosphorylation RhoA”. Besides, the “cell viability versus non-treated cells” value in the series with PC-3 cells [2] is given as “no difference in viability”. The “GM130 immunoreactivity and distribution” value in the series with GM130 is recorded as “clear reduction of GM130 immunoreactivity”. The same compound gave a solubility in “Solubility determination” of 181 µM (≈ 106 µg/mL). Also, in the series with active Cdc42, the “perinuclear distribution and immunoreactivity of active Cdc42” value is “obviously reduced this distribution”. The “inhibition of microspike formation” value in series [7] is recorded as “obvious inhibition of microspike formation”.

The term Kd denotes the concentration at which binding is half-saturated. A higher Kd goes with weaker binding. What is called solubility is the concentration that dissolves in the medium under given conditions.
